Measurements as given in paper PMC8578705 (Cell Reports, 2021).
“And” between values parts separate entries of the source, which are not always exact repeats. Equal values may be shown once.

Experiments:
[1] = biological target: T1, IP3R1 (cerebellar membranes) (Rattus norvegicus, UniProt P29994); experiment: Equilibrium-competition [3H]IP3 binding to cerebellar membranes in CLM (conditions mimicking functional assays)
T1 construct: membranes from cerebella of adult Wistar rats; from tissue; host or cells: cerebellar membranes of adult Wistar rats
Description: Bound and free ligand were separated by centrifugation (22°C, 5 min, 14,000 × g).
(§1) For equilibrium binding and concentration-effect relationships, results from each experiment were fitted to Hill equations (PRISM) from which pIC50 (-log of half-maximal inhibitory concentration) or pEC50 (-log of half-maximally effective concentration) values were determined. KDligand was calculated from: KDligand = […] . In functional assays, dose ratios (DR) were used to calculate antagonist affinities ([Arunlakshana and Schild, 1959]): KDantagonist = [antagonist]/(DR-1).

IP3R1 (HEK-IP3R1 cells) = biological target: T2, IP3R1 (HEK-IP3R1 cells) (Rattus norvegicus, UniProt P29994); experiment: Ca2+ release from permeabilized HEK-IP3R1 cells; type: cell-based; conditions: at the concentrations used (heparin 10 mg/mL, dequalinium 50 μM, 2-APB 125 μM), permeabilized HEK-IP3R1 cells
T2 construct: expressed in transfected cells
Description: Fluorescence, which is approximately linearly related to ER free [Ca^2+] […] Ca^2+-free CLM comprised: 20 mM NaCl, 140 mM KCl, 1 mM EGTA, 20 mM PIPES, 2 mM MgCl2, pH 7.0. […] MgATP (1.5 mM) was added to initiate Ca^2+ uptake, and when the ER had loaded to steady state with Ca^2+ (∼150 s), ligands were added. Responses to the ligands show ER Ca^2+ contents as either time courses or, in summary results, as the Ca^2+ content recorded 20 s after addition of the stimulus. The distribution of samples across 96-well plates was varied between experiments to avoid any systematic ‘position-related’ artifacts. HEK-G-CEPIA1er cells were permeabilized and assayed as described for Mag-fluo 4-loaded cells.
For equilibrium binding and concentration-effect relationships, results from each experiment were fitted to Hill equations (PRISM) from which pIC50 (-log of half-maximal inhibitory concentration) or pEC50 (-log of half-maximally effective concentration) values were determined.

[2] = biological target: T3, NT (residues 1-604 of IP3R1) (Rattus norvegicus, UniProt P29994); experiment: Equilibrium-competition [3H]IP3 binding to the NT fragment in TEM; conditions: [3H]IP3 0.75 nM, read-out: NT, KD
T3 construct: Residues 1-604 of rat IP3R1 (NT) in pTrcHisA plasmid; His6 (N, cleaved yes); made in house; host or cells: E. coli (bacterial lysate used in the assay)
Description: (§2) IP3R1, which accounts for ∼99% of IP3Rs in cerebellum ([Wojcikiewicz, 1995]), was purified from cerebella of adult Wistar rats using heparin-affinity chromatography ([Rossi et al., 2009]). The purified protein (10 μg/mL) was stored at −80°C in 500 mM NaCl, 50 mM Tris, 10% glycerol, 1 mM 2-mercaptoethanol, 1 mM benzamidine, 1 mM EGTA, 50 mM Tris, 1% CHAPS, pH 8.0. N-terminal fragments of IP3R1 (IBC, residues 224-604; NT, residues 1-604) were expressed as N-terminally tagged His6-fusion proteins in E. coli and cleaved from the tag with thrombin ([Rossi et al., 2009]). […] Bound and free ligand were separated by centrifugation (4°C, 5 min, 14,000 × g).
as §1

[3] = biological target: T4, IBC (residues 224-604 of IP3R1) (Rattus norvegicus, UniProt P29994); experiment: Equilibrium-competition [3H]IP3 binding to the IBC fragment in TEM; conditions: read-out: IBC, KD
T4 construct: Residues 224-604 of rat IP3R1 (IBC) in pTrcHisA plasmid; His6 (N, cleaved yes); made in house; host or cells: E. coli (bacterial lysate used in the assay)
Description: as §2, §1

IP3R1 (DT40-IP3R1 cells) = biological target: T5, IP3R1 (DT40-IP3R1 cells) (Rattus norvegicus, UniProt P29994); experiment: Ca2+ release from permeabilized DT40-IP3R1 cells (Mag-fluo 4); type: cell-based
T5 construct: expressed in transfected cells; host or cells: Gallus gallus DT40 cells without native IP3Rs, stably transfected
Description: (§3) Incubation of cells with the acetoxymethylester (AM) of Mag-fluo 4 traps low-affinity forms of the indicator ( KdCa = 1.15 mM measured in situ) within the ER. Fluorescence, which is approximately linearly related to ER free [Ca^2+] (since [Ca^2+]ER < KdCa ), can then be used, without further calibration, to reliably report free [Ca^2+] within the ER lumen ([Rossi and Taylor, 2020]). The ER of DT40 or HEK293 cells was loaded with indicator by incubating cells with Mag-fluo 4 AM (20 μM, 60 min, 22°C) in HEPES-buffered saline (HBS: 135 mM NaCl, 5.9 mM KCl, 11.6 mM HEPES, 1.5 mM CaCl2, 11.5 mM glucose, 1.2 mM MgCl2, pH 7.3) as described ([Rossi et al., 2009]). After washing and permeabilization with saponin (10 μg/mL, 37°C, 2-3 min) in Ca^2+-free cytosol-like medium (Ca^2+-free CLM), cells were centrifuged (650 × g, 2 min) and resuspended in Mg^2+-free CLM supplemented with CaCl2 to give a final free [Ca^2+] of 220 nM after addition of 1.5 mM MgATP. Ca^2+-free CLM comprised: 20 mM NaCl, 140 mM KCl, 1 mM EGTA, 20 mM PIPES, 2 mM MgCl2, pH 7.0. Cells (4 × 10^5 cells/well) were attached to poly-L-lysine-coated 96-well black-walled plates (Greiner Bio-One, Stonehouse, UK), and fluorescence (excitation and emission at 485 nm and 520 nm, respectively) was recorded at intervals of 1.44 s using a FlexStation III plate-reader (Molecular Devices, Sunnyvale, CA, USA). MgATP (1.5 mM) was added to initiate Ca^2+ uptake, and when the ER had loaded to steady state with Ca^2+ (∼150 s), ligands were added. Responses to the ligands show ER Ca^2+ contents as either time courses or, in summary results, as the Ca^2+ content recorded 20 s after addition of the stimulus. The distribution of samples across 96-well plates was varied between experiments to avoid any systematic ‘position-related’ artifacts. HEK-G-CEPIA1er cells were permeabilized and assayed as described for Mag-fluo 4-loaded cells.
as §1

[4] = system: IP3Rs (wild-type HEK cells); experiment: Ca2+ release from permeabilized wild-type HEK cells; type: cell-based, Homo sapiens; conditions: 20 s after addition
Description: as §3, §1

IP3R1 = biological target: T6, IP3R1 (Rattus norvegicus, UniProt P29994); experiment: Nuclear patch-clamp recording from excised nuclear patches of DT40-IP3R1 cells; type: biochemical, mammalian
T6 construct: expressed in transfected cells; host or cells: Gallus gallus DT40 cells without native IP3Rs, stably transfected
Description: The methods used for patch-clamp recording from patches excised from the outer nuclear envelope of DT40-IP3R1 cells, with K^+ as charge-carrier and using QuB ([Qin, 2004]) for analysis of currents, were as described previously ([Taufiq-Ur-Rahman et al., 2009]; [Rossi et al., 2009]). It typically took 30-45 s to establish a recording, and Po was then stable throughout recordings that typically lasted up to 8-10 mins.

T1 sequence (P29994 whole entry): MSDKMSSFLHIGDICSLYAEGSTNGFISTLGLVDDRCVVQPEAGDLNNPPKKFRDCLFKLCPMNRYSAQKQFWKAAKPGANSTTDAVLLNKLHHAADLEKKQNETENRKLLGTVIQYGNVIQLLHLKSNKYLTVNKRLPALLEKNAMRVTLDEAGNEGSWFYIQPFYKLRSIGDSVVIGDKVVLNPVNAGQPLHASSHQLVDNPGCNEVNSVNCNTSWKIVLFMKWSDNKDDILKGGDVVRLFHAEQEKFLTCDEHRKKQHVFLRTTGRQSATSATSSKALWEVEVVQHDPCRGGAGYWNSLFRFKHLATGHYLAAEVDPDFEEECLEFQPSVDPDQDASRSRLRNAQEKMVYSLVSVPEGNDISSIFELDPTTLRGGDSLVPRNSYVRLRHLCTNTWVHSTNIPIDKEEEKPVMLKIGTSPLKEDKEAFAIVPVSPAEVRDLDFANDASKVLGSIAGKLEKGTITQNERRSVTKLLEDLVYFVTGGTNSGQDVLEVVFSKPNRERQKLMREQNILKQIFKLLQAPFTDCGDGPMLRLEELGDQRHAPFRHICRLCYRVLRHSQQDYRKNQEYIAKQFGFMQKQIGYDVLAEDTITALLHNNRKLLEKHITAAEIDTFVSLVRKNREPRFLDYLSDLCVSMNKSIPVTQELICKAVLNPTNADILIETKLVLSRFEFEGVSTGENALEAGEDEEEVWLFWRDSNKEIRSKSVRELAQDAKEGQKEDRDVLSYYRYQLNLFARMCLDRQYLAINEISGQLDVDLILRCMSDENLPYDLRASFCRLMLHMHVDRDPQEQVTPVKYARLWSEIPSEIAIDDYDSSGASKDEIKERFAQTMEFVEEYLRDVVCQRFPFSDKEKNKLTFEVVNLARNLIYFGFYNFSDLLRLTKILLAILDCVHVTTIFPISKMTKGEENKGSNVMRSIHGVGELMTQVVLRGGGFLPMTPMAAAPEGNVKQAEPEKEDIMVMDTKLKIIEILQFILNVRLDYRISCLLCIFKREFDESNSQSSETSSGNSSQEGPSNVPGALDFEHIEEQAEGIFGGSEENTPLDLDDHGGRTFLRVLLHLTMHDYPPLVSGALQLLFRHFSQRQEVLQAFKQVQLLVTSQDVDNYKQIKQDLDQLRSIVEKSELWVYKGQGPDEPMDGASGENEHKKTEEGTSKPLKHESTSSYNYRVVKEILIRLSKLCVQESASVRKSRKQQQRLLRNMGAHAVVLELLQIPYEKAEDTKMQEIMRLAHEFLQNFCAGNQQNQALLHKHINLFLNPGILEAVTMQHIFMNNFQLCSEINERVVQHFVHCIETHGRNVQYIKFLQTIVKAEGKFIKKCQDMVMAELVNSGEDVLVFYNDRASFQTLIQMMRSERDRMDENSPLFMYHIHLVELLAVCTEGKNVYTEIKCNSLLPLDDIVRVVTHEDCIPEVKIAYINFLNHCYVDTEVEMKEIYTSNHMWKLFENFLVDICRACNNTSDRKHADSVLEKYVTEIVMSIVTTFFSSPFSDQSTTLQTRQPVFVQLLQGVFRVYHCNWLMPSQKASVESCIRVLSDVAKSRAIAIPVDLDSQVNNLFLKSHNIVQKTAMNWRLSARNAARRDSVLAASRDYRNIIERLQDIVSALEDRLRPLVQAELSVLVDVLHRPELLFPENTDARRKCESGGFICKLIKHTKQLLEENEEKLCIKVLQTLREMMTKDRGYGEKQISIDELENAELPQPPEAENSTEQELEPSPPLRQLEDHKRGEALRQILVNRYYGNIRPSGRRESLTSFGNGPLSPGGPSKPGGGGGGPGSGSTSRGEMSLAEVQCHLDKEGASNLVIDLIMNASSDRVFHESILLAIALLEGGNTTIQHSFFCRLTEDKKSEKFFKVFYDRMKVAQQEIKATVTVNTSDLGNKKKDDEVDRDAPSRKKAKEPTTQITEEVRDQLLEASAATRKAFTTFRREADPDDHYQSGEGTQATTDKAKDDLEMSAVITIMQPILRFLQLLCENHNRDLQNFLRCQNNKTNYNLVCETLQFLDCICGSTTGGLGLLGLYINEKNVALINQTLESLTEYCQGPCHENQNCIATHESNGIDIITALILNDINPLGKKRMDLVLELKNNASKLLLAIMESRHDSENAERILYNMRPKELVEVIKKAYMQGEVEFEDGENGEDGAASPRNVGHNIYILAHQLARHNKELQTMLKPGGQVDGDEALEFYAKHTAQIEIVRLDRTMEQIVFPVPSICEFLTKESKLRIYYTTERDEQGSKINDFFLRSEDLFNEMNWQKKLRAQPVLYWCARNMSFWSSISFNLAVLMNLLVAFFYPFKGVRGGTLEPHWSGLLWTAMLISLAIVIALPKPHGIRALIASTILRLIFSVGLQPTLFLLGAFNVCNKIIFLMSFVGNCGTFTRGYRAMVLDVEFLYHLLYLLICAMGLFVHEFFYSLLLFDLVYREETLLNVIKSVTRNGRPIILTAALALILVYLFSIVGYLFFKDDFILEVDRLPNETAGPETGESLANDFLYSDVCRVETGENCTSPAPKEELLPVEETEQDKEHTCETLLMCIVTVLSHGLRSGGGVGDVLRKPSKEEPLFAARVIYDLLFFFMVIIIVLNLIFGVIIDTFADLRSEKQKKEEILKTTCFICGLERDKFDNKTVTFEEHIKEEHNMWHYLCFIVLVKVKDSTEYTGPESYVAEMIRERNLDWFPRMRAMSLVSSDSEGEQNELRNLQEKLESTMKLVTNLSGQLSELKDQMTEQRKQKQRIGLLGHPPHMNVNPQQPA
T3 sequence (P29994 1-604): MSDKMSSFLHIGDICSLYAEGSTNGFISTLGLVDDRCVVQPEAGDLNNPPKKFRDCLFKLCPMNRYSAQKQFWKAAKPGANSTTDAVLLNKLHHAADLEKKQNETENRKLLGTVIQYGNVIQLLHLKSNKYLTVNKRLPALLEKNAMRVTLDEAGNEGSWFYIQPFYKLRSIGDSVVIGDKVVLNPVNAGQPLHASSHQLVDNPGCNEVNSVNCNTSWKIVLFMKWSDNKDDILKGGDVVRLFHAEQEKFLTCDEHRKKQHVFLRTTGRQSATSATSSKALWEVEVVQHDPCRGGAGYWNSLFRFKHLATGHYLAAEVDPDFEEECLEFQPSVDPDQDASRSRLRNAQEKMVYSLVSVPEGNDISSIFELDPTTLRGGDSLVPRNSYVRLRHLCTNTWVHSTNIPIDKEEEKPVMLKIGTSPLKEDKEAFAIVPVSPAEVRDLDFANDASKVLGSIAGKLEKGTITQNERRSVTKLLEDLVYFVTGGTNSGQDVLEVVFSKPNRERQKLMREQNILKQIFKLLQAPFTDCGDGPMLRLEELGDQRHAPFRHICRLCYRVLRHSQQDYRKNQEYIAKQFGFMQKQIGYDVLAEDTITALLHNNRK
T4 sequence (P29994 224-604): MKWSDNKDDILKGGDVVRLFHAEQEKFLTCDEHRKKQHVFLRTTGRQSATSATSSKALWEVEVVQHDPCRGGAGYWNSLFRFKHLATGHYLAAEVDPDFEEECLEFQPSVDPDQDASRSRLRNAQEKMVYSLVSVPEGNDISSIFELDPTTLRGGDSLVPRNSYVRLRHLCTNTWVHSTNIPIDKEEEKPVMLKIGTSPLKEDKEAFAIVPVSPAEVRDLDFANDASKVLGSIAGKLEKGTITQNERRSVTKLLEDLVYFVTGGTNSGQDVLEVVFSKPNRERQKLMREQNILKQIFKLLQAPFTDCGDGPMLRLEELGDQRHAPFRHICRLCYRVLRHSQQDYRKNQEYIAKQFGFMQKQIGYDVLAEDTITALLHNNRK

**Q.** For Cc1cc(N)c2ccccc2[n+]1CCCCCCCCCC[n+]1c(C)cc(N)c2ccccc21 [dequalinium, Dequalinium chloride hydrate], which “effect on specific [3H]IP3 binding” value ([1]; dequalinium 50 μM, [3H]IP3 7.5 nM, cerebellar membranes in CLM at 20°C) is on record?
**A.** The value was “No significant difference”.

**Q.** What about the “block of IP3-evoked Ca2+ release” value (IP3R1 (HEK-IP3R1 cells)) of the same compound?
**A.** Its value is “completely”.

**Q.** Which results are given for O=C(NCCCN(CCCCN(CCCNC(=O)OCc1ccccc1)C(=O)OCc1ccccc1)C(=O)OCc1ccccc1)NCCO[C@@H]1[C@H](O)[C@@H](OP(=O)(O)O)[C@H](OP(=O)(O)O)[C@@H](O)[C@@H]1OP(=O)(O)O [Compound 2, 2-O-(1,5,10-tris(benzyloxycarbonyl)-15-oxo-1,5,10,14,16-pentaazaoctadecan-18-yl)-1D-myo-inositol 1,4,5-trisphosphate]?
**A.** Kd [2]: 2.32 nM; Kd [3]: 0.44 nM; Hill coefficient (h) of binding ([1]; cerebellar membranes, CLM at 20°C): 2.0 ± 0.7; Kd ([1]; cerebellar membranes, CLM, conditions that mimic functional assays): 549 nM; KD relative to KD for IP3 (fold lower) ([1]; conditions that mimic functional assays): 1.5 fold; ECI50/KD ratio relative to IP3 (fold greater) (IP3R1 (DT40-IP3R1 cells)): 41 fold; Ca2+ release evoked by 2 (%) (IP3R1 (DT40-IP3R1 cells); 2 at 1 µM, 30 s, permeabilized DT40-IP3R1 cells): 31% ± 7% and 31 ± 7%; Ca2+ stores released by a maximal concentration (IP3R1 (DT40-IP3R1 cells); 2 at 30 μM, determined at 150 s, permeabilized DT40-IP3R1 cells): 52% ± 3%; Kd (IP3R1 (DT40-IP3R1 cells); DT40-IP3R1 cells, read-out: KD derived from functional assays): ~450 nM; pKD-pECI50 (IP3R1 (DT40-IP3R1 cells); KD for IP3R1 in TEM, ECI50 in DT40-IP3R1 cells, mean ± SEM): 2.15 ± 0.15; Kb (IP3R1 (DT40-IP3R1 cells); functional analysis, IP3-evoked Ca2+ release ± 2 (1 µM), DT40-IP3R1 cells, read-out: KD determined from dose-ratio analysis, KD = [2]/(DR-1)): 426 nM; Ca2+ release, Release (maximal) (IP3R1 (DT40-IP3R1 cells); permeabilized DT40-IP3R1 cells, determined after 20 s, mean ± SEM): 51.9 ± 0.7%; EC50 (IP3R1 (DT40-IP3R1 cells); permeabilized DT40-IP3R1 cells, determined after 20 s, read-out: Ca2+ release, EC50): 479 nM; Ca2+ release (%) ([4]; maximal): 51 ± 7%; pEC50 ([4]; mean ± SEM): 6.09 ± 0.22; decrease in τo relative to IP3 (fold) (IP3R1): ~2 fold; maximal NPo relative to IP3 (fold less) (IP3R1): 40 fold; τo, mean channel open time (IP3R1; 10 µM ligand): 4.4 ± 0.20 ms; NPo (channel activity) (IP3R1; 10 µM ligand in pipette, +40 mV, K+ charge carrier, mean ± SEM): 0.012 ± 0.003; γK, single-channel K+ conductance (IP3R1; 10 µM ligand, from current-voltage relationships): 217 ± 4 pS

**Q.** How did the “block of IP3-evoked Ca2+ release” value (IP3R1 (HEK-IP3R1 cells)) turn out when NCCOB(c1ccccc1)c1ccccc1 [Compound 2-APB, 2-aminoethoxydiphenyl borate] was run?
**A.** The value was “partially”.
